# According to patent US6486097B2, “Herbicidal fatty acid and maleic hydrazide salt compositions” (W. Neudorff GmbH KG, priority 2000, dated 2002):
# What was measured:
# dandelions [1] = test: Field dandelion test with added alcohol and gum (Example 6); type: in vivo; conditions: 0.2 L/m^2, re-sprayed after 14 days, 10 days after second spray
# Experimental: This test compared the herbicidal activity of NH4C9, NH4MH and (NH4C9+NH4MH) with added alcohol and gums on dandelion mortality. The gum Kelzan S (Merck & Co., Inc.) at 0.08% was used as a thickener.
# This test also investigated the effect of adding NH4MH to emulsified C9 acid. The emulsified C9 acid solution was made by adding 3.5 g of C9 acid with 1.0 g of Tween 80 and 95.5 g water (no ammonium hydroxide was added). For the C9 acid+NH4MH solution, 13 g of water was replaced by 13 g of the 6.9% NH4MH stock solution.
# Every solution was sprayed onto 16 field-grown, medium-sized dandelions. All of the dandelions had leaves longer than 10 cm. The dandelions were sprayed at a rate of 0.2 L/m^2. All plants were re-sprayed 14 days after the first spray. The number of dead plants was assessed 10 days after the second spray.
# dandelions [2] = test: Potted dandelion test of NH4C9 and NH4C11:1 with and without MH (Example 7); type: in vivo; conditions: for Number of Dead Plants of 15 Total: 0.5 L/m^2, sprayed twice 8 days apart, 8 days after second spray; for Contact herbicidal activity (in words): without NH4MH, treated plants were able to re-grow
# Excerpt: Five-month-old potted dandelions were sprayed with solutions of ammonium fatty acid soaps in combination with NH4MH. The solutions contained 3.9% ammonium fatty acid soaps and 1.15% NH4MH. The plants were sprayed at a rate of 0.5 L/m^2. The plants were sprayed twice, with 8 days between sprays. Final observations were taken 8 days after the second spray. Fifteen plants were used per treatment.
# dandelions [3] = test: Dandelion test of NH4C9 with a range of NH4MH concentrations (Example 3); type: in vivo; conditions: sprayed to wetness, 36 days after spraying
# Experimental: This test examined NH4C9 combined with a range of NH4MH concentrations. All of the NH4C9 treatments contained 3.9% NH4C9. All of the solutions were sprayed to wetness onto 10 dandelions. The number of dead plants was assessed 36 days after spraying.
# [4] = Viscosity of test solutions (Example 4); type: physicochemical; conditions: pH 7.38
# Excerpt: (§1) This test studied the effect of thickening NH4C9+NH4MH solutions on plant mortality. The solutions were thickened by adding 0.5 g of the xanthan gum Rhodopol 23 suspended in 3.0 g propylene glycol to 96.5 g solution. The pH values of the test solutions were adjusted to 7.38.
# dandelions [5] = test: Field dandelion test (Example 2); type: in vivo; conditions: 0.2 L/m^2, re-sprayed after 7 days, 38 days after first spray
# Experimental: This test compared the herbicidal activity of NH4C9, NH4MH, and NH4C9+NH4MH on dandelion mortality. This test also investigated the effect of adding isopropyl alcohol (IPA) to NH4C9+NH4MH. Nine dandelions were grown in 0.5 m^2 areas of soil in the field. At the time of spraying the dandelions were very large, with leaves longer than 25 cm. Every treatment was sprayed onto 4 areas of soil. Every 0.5 m^2 plot received 100 ml of solution (0.2 L/m^2). All of the areas were re-sprayed 7 days after the first spray. The number of dead plants was assessed 38 days after the first spray.
# Round Up (35.6% glyphosate N-(phosphonomethyl) glycine) produced by Monsanto, Killex (9.5% 2,4-D (2,4-dichlorophenoxy) acetic acid, Mecoprop (5% 2-(4-chloro-2-methylphenoxy)) propanoic acid and 0.9% Dicamba (3,6-dichloro-o-anisic acid) by Green Cross were diluted as per label instructions and included as standards.
# dandelions [6] = test: Greenhouse dandelion test with a gum (Example 4), mortality; type: in vivo; conditions: pH 7.38
# Excerpt: as §1
# [7] = same number of moles of NH4MH and MH
# Experimental: The compositions of the solutions are listed below. Note that slightly more NH4MH was added than MH acid, as NH4MH has a higher molecular weight. The same number of moles of NH4MH and MH were used.
# Viscosity is measured in centipoise (milli pascal seconds). Water has a viscosity of 1.0.
# dandelions [8] = test: Greenhouse dandelion test of TopGun with and without MH (Example 5); type: in vivo; conditions: NH4MH 1.15%; sprayed to run-off; 15 days after spraying
# Experimental: TopGun is a proprietary emulsified formulation containing 18% C9 (nonanoic) acid present as free acid. TopGun was diluted to 1.8% C9 acid. Each solution was sprayed to run-off onto ten 20 cm diameter dandelions grown in the greenhouse. The number of dead plants was assessed 15 days after spraying.
# [9] = C9 acid 3.5% emulsified with Tween 80
smiles,measurement,setting,value
"CCCCCCCCC(=O)O [C9 acid, Nonanoic acid]",Dead Plants (#/16),dandelions [1]; [9],3 #/16
same,Dead Plants (%),dandelions [1]; [9],19%
"O=c1ccc(=O)[nH][nH]1 [MH, 1,2-dihydro-3,6-pyridazine-dione]",Number of Dead Plants of 15 Total,dandelions [2]; MH only 1%,0
"CCCCCCCCC(=O)O.N [NH4C9, ammonium salt of nonanoic acid]",Dead Plants (#/16),dandelions [1]; NH4C9 3.9%,2 #/16
same,Dead Plants (%),dandelions [1]; NH4C9 3.9%,13%
same,Number of Dead Plants of 15 Total,dandelions [2]; NH4C9 3.9%,1
same,Contact herbicidal activity (in words),dandelions [2],good contact herbicides
same,Mortality (#/10 plants),dandelions [3]; NH4C9 3.9%,0 #/10 plants
same,Viscosity (Cps),[4]; NH4C9 2.2%,1 Cps
same,Dead Plants (#/36),dandelions [5]; NH4C9 3.9%,0 #/36
same,Dead Plants (%),dandelions [5]; NH4C9 3.9%,0%
same,Mortality (#/10),dandelions [6]; NH4C9 2.2%,1 #/10
C=CCCCCCCCCC(=O)O.N [NH4C11:1],Number of Dead Plants of 15 Total,dandelions [2]; NH4C11:1 3.9%,2
same,Contact herbicidal activity (in words),dandelions [2],good contact herbicides
"N.O=c1ccc(O)n[nH]1 [NH4MH, ammonium salt of maleic hydrazide]",Dead Plants (#/16),dandelions [1]; NH4MH 0.9% only,0 #/16
same,Dead Plants (%),dandelions [1]; NH4MH 0.9% only,0%
same,Mortality (#/10 plants),dandelions [3]; NH4MH 1.15%,0 #/10 plants
same,Solubility in NH4C9 concentrate compared with MH,[7],superior solubility
same,Viscosity (Cps),[4]; NH4MH 1.15%,1 Cps
same,Dead Plants (#/36),dandelions [5]; NH4MH 1.15%,1 #/36
same,Dead Plants (%),dandelions [5]; NH4MH 1.15%,3%
same,Number of Dead Plants (#/10 Plants),dandelions [8],0 #/10 Plants
same,Mortality (#/10),dandelions [6]; NH4MH 1.15%,0 #/10
